Legend:
[1] = target: Sodium-dependent noradrenaline transporter (Homo sapiens, UniProt P23975); test: DRUGMATRIX: Norepinephrine Transporter radioligand binding (ligand: [125I] RTI-55); assay type: cell membranes, MDCK, Membrane; details: Not Active = under 50% inhibition at 10 µM
[2] = target: T1, Type-2 angiotensin II receptor (Homo sapiens, UniProt P50052); assay type: cell-based; details: cho-k1; note: in other assays of this panel Not Active means under 50% inhibition at 10 µM
T1 sequence (P50052 whole entry): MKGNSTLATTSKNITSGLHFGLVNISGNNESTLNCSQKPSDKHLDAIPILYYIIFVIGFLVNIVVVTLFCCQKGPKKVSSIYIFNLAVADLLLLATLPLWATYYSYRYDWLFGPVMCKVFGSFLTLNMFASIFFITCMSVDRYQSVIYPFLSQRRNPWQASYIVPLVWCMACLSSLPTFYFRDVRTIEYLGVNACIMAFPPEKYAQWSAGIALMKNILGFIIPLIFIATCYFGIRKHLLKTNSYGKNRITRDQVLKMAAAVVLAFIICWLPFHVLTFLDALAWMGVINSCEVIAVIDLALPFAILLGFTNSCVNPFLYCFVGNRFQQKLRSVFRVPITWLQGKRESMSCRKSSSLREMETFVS

[3] = DRUGMATRIX: ATPase, Na+/K+ enzyme inhibition (substrate: ATP); assay type: tissue-based, Sus scrofa, Heart; details: Not Active = under 50% inhibition at 10 µM
[4] = DRUGMATRIX: Calcium Channel Type L, Benzothiazepine radioligand binding (ligand: [3H] Diltiazem); assay type: cell membranes, Rattus norvegicus, Wistar, Brain, Membrane; details: Not Active = under 50% inhibition at 10 µM
Substance-P receptor = Substance-P receptor (Homo sapiens, UniProt P25103); assay type: cell membranes, CHO, Membrane; details: cho; note: in other assays of this panel Not Active means under 50% inhibition at 10 µM
Sequence of Substance-P receptor (P25103 whole entry): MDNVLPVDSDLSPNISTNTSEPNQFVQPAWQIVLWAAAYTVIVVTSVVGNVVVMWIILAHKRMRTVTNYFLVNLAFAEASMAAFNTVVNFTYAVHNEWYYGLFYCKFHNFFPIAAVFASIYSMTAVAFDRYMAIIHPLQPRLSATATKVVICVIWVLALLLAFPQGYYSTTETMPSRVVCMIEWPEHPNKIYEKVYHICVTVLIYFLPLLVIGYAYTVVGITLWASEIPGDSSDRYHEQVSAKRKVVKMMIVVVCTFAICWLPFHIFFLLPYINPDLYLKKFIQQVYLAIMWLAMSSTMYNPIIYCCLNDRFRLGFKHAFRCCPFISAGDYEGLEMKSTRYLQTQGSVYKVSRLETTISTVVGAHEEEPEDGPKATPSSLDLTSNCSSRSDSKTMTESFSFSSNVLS

[5] = DRUGMATRIX: Tumor Necrosis Factor (TNF), Non-Selective radioligand binding (ligand: [125I] TNF-alpha); assay type: cell membranes, Membrane; details: u-937; Not Active = under 50% inhibition at 10 µM
Cannabinoid receptor 1 = Cannabinoid receptor 1 (Homo sapiens, UniProt P21554); assay type: cell membranes, Membrane; details: chem-1; note: in other assays of this panel Not Active means under 50% inhibition at 10 µM
Sequence of Cannabinoid receptor 1 (P21554 whole entry): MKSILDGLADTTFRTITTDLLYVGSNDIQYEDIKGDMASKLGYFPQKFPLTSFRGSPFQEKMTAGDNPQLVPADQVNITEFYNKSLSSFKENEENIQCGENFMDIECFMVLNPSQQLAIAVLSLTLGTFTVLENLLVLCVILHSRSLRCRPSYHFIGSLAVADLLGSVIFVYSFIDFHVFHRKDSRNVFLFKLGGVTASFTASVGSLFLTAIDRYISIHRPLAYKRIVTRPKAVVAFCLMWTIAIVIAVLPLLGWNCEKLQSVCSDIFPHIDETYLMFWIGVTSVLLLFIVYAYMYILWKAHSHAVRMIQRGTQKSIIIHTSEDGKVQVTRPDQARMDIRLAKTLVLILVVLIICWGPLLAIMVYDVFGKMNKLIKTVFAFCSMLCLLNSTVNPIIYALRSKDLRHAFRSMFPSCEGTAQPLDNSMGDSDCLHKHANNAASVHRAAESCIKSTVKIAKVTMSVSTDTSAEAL

[6] = DRUGMATRIX: GABAA, Flunitrazepam, Central radioligand binding (ligand: [3H] Flunitrazepam); assay type: cell membranes, Rattus norvegicus, Wistar, Brain, Membrane; details: Not Active = under 50% inhibition at 10 µM
[7] = target: T2, Polyunsaturated fatty acid lipoxygenase ALOX15 (Oryctolagus cuniculus, UniProt P12530); test: biochemical; assay type: tissue-based, Reticulocytes; details: reticulocytes;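 note: inhibition of 15-lipoxygenase enzyme activity measured with linoleic acid as the substrate; in other assays of this panel Not Active means under 50% inhibition at 10 µM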
T2 sequence (P12530 whole entry): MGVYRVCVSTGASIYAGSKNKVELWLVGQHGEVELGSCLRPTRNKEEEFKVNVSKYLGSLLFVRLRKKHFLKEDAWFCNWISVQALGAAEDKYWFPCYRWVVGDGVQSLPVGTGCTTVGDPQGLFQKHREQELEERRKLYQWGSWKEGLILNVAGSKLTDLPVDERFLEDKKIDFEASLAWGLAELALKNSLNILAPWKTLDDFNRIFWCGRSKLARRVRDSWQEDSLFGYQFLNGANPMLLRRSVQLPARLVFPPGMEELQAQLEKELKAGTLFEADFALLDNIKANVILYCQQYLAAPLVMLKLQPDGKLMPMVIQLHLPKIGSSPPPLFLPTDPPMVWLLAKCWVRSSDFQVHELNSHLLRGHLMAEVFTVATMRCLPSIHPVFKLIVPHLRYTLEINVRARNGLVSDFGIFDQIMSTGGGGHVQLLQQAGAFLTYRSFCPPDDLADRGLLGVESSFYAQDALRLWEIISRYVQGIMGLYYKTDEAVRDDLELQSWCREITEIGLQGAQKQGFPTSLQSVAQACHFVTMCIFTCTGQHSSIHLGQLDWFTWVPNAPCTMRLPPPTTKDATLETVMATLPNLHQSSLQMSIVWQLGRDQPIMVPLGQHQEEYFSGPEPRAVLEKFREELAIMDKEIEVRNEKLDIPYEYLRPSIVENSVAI

Mu-type opioid receptor = Mu-type opioid receptor (Homo sapiens, UniProt P35372); test: DRUGMATRIX: Opiate mu (OP3, MOP) radioligand binding (ligand: [3H] Diprenorphine); assay type: cell membranes, CHO-K1, Membrane; details: cho-k1; Not Active = under 50% inhibition at 10 µM
Sequence of Mu-type opioid receptor (P35372 whole entry): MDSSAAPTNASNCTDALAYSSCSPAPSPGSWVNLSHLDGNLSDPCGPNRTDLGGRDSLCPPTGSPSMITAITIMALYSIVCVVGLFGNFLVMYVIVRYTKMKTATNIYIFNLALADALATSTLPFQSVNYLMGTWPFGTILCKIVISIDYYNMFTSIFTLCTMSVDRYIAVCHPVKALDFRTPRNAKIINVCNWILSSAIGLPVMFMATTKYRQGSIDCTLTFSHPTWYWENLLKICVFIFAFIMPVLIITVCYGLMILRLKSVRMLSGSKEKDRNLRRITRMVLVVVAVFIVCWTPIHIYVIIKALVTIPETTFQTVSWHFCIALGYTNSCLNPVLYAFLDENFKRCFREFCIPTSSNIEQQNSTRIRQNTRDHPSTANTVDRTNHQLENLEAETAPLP

Caspase-1 = target: T3, Caspase-1 (Homo sapiens, UniProt P29466); design: species or system Escherichia coli
T3 sequence (P29466 whole entry): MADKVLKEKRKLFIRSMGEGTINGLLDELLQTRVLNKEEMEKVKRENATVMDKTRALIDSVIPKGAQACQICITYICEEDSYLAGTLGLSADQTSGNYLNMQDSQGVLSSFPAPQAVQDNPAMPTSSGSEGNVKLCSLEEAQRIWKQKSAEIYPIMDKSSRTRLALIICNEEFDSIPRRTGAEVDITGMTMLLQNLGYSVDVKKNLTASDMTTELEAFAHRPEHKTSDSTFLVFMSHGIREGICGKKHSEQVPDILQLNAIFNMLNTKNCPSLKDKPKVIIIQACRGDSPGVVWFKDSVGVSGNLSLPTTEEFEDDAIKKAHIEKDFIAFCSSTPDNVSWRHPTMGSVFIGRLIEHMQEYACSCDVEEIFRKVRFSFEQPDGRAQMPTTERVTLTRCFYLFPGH

[8] = target: Mitogen-activated protein kinase 3 (Homo sapiens, UniProt P27361); test: DRUGMATRIX: Protein Serine/Threonine Kinase, ERK1 enzyme inhibition (substrate: Myelin Basic Protein); design: species or system Escherichia coli; details: Not Active = under 50% inhibition at 10 µM
Sequence of Mitogen-activated protein kinase 3 (P27361 whole entry): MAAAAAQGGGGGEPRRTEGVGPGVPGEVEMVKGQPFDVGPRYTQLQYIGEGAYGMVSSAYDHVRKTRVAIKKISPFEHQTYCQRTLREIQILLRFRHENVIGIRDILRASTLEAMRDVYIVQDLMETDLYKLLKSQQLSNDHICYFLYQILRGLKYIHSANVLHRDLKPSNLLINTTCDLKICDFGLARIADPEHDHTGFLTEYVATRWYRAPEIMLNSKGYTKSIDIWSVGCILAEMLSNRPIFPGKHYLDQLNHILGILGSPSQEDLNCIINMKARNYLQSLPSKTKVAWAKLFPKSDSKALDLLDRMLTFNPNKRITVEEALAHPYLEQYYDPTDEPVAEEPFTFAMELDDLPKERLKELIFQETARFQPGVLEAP

[9] = target: Epidermal growth factor receptor (Homo sapiens, UniProt P00533); test: DRUGMATRIX: Protein Tyrosine Kinase, EGF Receptor enzyme inhibition (substrate: Poly(Glu:Tyr)); assay type: cell-based, Insect cells; details: insect cells; Not Active = under 50% inhibition at 10 µM
Sequence of Epidermal growth factor receptor (P00533 whole entry): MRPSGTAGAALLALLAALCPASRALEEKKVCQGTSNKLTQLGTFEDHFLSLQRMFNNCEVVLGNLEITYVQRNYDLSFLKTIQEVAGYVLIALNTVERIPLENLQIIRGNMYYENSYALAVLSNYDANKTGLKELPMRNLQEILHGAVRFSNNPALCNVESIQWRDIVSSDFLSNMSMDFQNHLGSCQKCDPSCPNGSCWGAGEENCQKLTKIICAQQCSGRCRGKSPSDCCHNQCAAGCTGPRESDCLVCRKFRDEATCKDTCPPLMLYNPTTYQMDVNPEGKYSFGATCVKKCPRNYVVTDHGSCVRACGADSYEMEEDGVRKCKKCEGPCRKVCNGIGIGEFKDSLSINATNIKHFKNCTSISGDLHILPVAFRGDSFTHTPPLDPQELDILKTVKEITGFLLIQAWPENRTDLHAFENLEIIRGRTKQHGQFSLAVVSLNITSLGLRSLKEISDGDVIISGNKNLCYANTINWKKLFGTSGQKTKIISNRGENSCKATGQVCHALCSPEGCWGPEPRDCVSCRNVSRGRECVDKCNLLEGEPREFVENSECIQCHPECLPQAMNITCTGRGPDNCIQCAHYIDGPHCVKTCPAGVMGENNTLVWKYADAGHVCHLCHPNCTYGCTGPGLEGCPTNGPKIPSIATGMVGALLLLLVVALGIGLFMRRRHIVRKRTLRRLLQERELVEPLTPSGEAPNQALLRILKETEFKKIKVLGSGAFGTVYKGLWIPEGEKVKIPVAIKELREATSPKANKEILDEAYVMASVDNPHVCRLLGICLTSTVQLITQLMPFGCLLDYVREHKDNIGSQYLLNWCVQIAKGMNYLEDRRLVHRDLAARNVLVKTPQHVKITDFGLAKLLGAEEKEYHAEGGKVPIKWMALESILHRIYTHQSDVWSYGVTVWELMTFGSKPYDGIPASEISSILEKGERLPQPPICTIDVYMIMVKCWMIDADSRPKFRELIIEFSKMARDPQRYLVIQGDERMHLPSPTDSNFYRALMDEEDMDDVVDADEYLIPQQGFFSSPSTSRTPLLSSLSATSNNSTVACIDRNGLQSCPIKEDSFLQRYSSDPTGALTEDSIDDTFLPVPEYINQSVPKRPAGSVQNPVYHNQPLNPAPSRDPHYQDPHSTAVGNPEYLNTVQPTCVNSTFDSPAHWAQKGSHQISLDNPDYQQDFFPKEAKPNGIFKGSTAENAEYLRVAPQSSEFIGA

[10] = DRUGMATRIX: Purinergic P2X radioligand binding (ligand: [3H] alpha, beta-Methylene-ATP); assay type: cell membranes, Oryctolagus cuniculus, New Zealand albino, Urinary bladder, Membrane; details: Not Active = under 50% inhibition at 10 µM
Cytochrome P450 2E1 = Cytochrome P450 2E1 (Homo sapiens, UniProt P05181); details: bti-tn-5b1-4; note: in other assays of this panel Not Active means under 50% inhibition at 10 µM
Sequence of Cytochrome P450 2E1 (P05181 whole entry): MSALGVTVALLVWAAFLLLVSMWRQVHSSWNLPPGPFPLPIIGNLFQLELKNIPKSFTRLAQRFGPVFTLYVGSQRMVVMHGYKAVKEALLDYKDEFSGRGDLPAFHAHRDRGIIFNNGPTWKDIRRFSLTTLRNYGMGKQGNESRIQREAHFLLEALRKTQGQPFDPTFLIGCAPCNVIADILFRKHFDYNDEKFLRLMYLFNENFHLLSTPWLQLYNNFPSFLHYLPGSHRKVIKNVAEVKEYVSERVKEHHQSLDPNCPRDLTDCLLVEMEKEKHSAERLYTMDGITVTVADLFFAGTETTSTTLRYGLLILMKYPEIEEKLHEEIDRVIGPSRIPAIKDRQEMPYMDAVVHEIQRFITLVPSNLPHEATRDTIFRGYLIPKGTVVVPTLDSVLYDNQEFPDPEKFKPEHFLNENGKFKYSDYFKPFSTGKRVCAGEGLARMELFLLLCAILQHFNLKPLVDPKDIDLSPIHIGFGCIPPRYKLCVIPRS

Sequence of Sodium-dependent noradrenaline transporter (P23975 whole entry): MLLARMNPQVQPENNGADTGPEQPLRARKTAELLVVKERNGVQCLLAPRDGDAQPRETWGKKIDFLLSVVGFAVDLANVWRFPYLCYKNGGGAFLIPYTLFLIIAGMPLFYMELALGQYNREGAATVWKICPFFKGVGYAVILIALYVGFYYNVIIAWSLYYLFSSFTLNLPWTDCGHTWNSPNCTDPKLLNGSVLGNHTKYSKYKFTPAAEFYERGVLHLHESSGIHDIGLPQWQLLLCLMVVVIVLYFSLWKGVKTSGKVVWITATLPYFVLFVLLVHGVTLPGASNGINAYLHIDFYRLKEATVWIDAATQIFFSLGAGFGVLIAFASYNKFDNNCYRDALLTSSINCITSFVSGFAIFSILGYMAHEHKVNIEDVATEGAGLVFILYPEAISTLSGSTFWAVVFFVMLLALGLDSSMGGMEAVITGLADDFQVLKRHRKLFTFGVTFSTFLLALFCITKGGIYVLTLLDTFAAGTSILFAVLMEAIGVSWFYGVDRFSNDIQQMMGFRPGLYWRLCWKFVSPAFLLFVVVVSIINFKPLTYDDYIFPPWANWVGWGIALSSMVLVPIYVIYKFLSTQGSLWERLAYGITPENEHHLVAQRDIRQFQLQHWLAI

| SMILES | IC50 ([1]; mdck) | IC50 [2] | IC50 [3] | Ki [3] | IC50 [4] | Ki [4] | IC50 (Substance-P receptor) | IC50 [5] | Ki [5] | IC50 (Cannabinoid receptor 1) | IC50 [6] | Ki [6] | IC50 [7] | IC50 (Mu-type opioid receptor) | IC50 (Caspase-1) | IC50 [8] | IC50 [9] | IC50 [10] | Ki [10] | IC50 (Cytochrome P450 2E1) | further results |
| --- | --- | --- | --- | --- | --- | --- | --- | --- | --- | --- | --- | --- | --- | --- | --- | --- | --- | --- | --- | --- | --- |
| CC1CN(c2cc3c(cc2F)c(=O)c(C(=O)O)cn3-c2ccc(F)cc2F)CCN1 (stereo not given) [TEMAFLOXACIN] | Not Active | Not Active | Not Active | Not Active | Not Active | Not Active | Not Active | Not Active | Not Active | Not Active | Not Active | Not Active | Not Active | Not Active | Not Active | Not Active | Not Active | Not Active | Not Active | Not Active | Ki (Cytochrome P450 2E1): Not Active |
| CC1(C)[C@H]2CC[C@]1(C)C(=O)C2 [(-)-CAMPHOR] | Not Active | Not Active | Not Active | Not Active | Not Active | Not Active | Not Active | Not Active | Not Active | Not Active | Not Active | Not Active | Not Active | Not Active | Not Active | Not Active | Not Active | Not Active | Not Active | Not Active | Ki (Cytochrome P450 2E1): Not Active |
| CC(CCc1ccccc1)NCC(O)c1ccc(O)c(C(N)=O)c1 (stereo not given) [LABETALOL] | – | Not Active | Not Active | Not Active | Not Active | Not Active | Not Active | Not Active | Not Active | Not Active | Not Active | Not Active | Not Active | Not Active | Not Active | Not Active | Not Active | Not Active | Not Active | Not Active | IC50 ([1]; read-out: IC50): 3350 nM; Ki ([1]; read-out: Ki): 3330 nM; Ki (Cytochrome P450 2E1): Not Active |
| CN1[C@@H]2CC[C@H]1C[C@@H](OC(=O)c1c[nH]c3ccccc13)C2 [TROPISETRON] | Not Active | Not Active | Not Active | Not Active | Not Active | Not Active | Not Active | Not Active | Not Active | Not Active | – | – | Not Active | Not Active | Not Active | Not Active | Not Active | Not Active | Not Active | Not Active | IC50 ([6]; read-out: IC50): 1140 nM; Ki ([6]; read-out: Ki): 926 nM; Ki (Cytochrome P450 2E1): Not Active |
| NC(=O)c1ncn([C@@H]2O[C@H](CO)[C@@H](O)[C@H]2O)n1 [RIBAVIRIN] | Not Active | Not Active | Not Active | Not Active | Not Active | Not Active | Not Active | Not Active | Not Active | Not Active | Not Active | Not Active | Not Active | Not Active | Not Active | Not Active | Not Active | Not Active | Not Active | Not Active | Ki (Cytochrome P450 2E1): Not Active |
| CO[C@@H]1[C@@H](O[C@@H]2O[C@H](C)[C@@H](O[C@H]3C[C@@](C)(O)[C@@H](OC(=O)CC(C)C)[C@H](C)O3)[C@H](N(C)C)[C@H]2O)[C@@H](CC=O)C[C@@H](C)[C@@H](O)/C=C/C=C/C[C@@H](C)OC(=O)C[C@H]1O [KITASAMYCIN] | Not Active | Not Active | Not Active | Not Active | Not Active | Not Active | Not Active | Not Active | Not Active | Not Active | Not Active | Not Active | Not Active | Not Active | Not Active | Not Active | Not Active | Not Active | Not Active | Not Active | Ki (Cytochrome P450 2E1): Not Active |
| COC(=O)[C@@H]1[C@H]2C[C@H]3c4[nH]c5ccccc5c4CCN3C[C@@H]2CC[C@@H]1O [YOHIMBINE] | Not Active | Not Active | Not Active | Not Active | Not Active | Not Active | Not Active | Not Active | Not Active | Not Active | Not Active | Not Active | Not Active | Not Active | Not Active | Not Active | Not Active | Not Active | Not Active | – | – |
| CN[C@@H]1[C@@H](O)[C@@H](O[C@@H]2[C@@H](O)[C@H](O[C@H]3OC(CN)=CC[C@H]3N)[C@@H](N)C[C@H]2N)OC[C@]1(C)O [SISOMICIN] | Not Active | Not Active | Not Active | Not Active | Not Active | Not Active | Not Active | Not Active | Not Active | Not Active | Not Active | Not Active | Not Active | Not Active | Not Active | Not Active | Not Active | Not Active | Not Active | – | – |

From ChEMBL document CHEMBL1909046, “DrugMatrix in vitro pharmacology data”
